Measured values reported in patent publication US20100278983A1, “COMPOSITION OF MONASCUS FERMENTED PRODUCT WITH A FUNCTION THAT REDUCES BODY FATNESS FORMATION AND THE METHOD FOR MANUFACTURING THE SAME” (SUNWAY BIOTECH CO., LTD., priority 2009, published 2010).

Key:
3T3-L1 preadipocyte [1] = assay: Differentiation rate of 3T3-L1 preadipocyte (content of triglyceride, TG); format: cell-based; settings: Mus musculus; for inhibition at 125 µg/mL: 0.125 mg/mL
Experimental: (§1) 3T3-L1 preadipocyte is used as the experimental material in the in vitro cellular experiments to probe into the effects of Monascus fermented product on proliferation and differentiation in preadipocyte.
In this research, 50, 100 and 200 μg/mL of water extracts of red mold rice and red mold dioscorea are added to 3T3-L1 preadipocyte respectively during differentiation induction and then the cells are collected to be analyzed the content of triglyceride after 8 days of differentiation. TG synthesis is an indicator for the differentiation late phase of the fat cells, thus the TG content in cells are usually used to determine the differentiation rate.

3T3-L1 preadipocyte [2] = assay: Proliferation rate of 3T3-L1 preadipocyte; format: cell-based; settings: for decrease of proliferation rate of 3T3-L1 preadipocyte: 24 hours
Excerpt: as §1

[3] = Body weight of rats fed with high-fat diet and Monascus fermented product; format: in vivo, male Wister rats; settings: after 6 weeks of feeding, dosage not stated
Excerpt: In order to estimate the effects of Monascus fermented product on the decrease in body fat mass development and body weight-lowering, the present invention carried out in vitro cellular experiments and in vivo experiments. 3T3-L1 preadipocyte is used as the experimental material in the in vitro cellular experiments to probe into the effects of Monascus fermented product on proliferation and differentiation in preadipocyte. Male Wister rates are used as the experimental animals in the in vivo experiments and fed with high-fat diet and Monascus fermented products at the same time, then determine the effects of the decrease in body fat mass development by many evaluation indicators after […] of breeding.
Rats are randomly divided into to 9 groups, each include 8 rats, on the principles that the initial average weights of rats are unanimous. Rats are fed with high-fat diet and Monascus fermented product at the same time in experiments and then sacrificed for every analyses after 6 weeks of feeding. […]

Row | SMILES | inhibition at 125 µg/mL (3T3-L1 preadipocyte [1]) [%] | inhibition at 250 µg/mL (3T3-L1 preadipocyte [1]; 0.25 mg/mL) [%] | inhibition at 1000 µg/mL (3T3-L1 preadipocyte [2]; Mus musculus, 3T3-L1, 1 mg/mL, 72 hours) [%] | Final body weight [3] [g] | Increment of body weight [3] [g] | decrease of proliferation rate of 3T3-L1 preadipocyte (3T3-L1 preadipocyte [2]; 1.25 μg/mL) [%] | decrease of proliferation rate of 3T3-L1 preadipocyte (3T3-L1 preadipocyte [2]; 2.5 μg/mL) [%] | decrease of proliferation rate of 3T3-L1 preadipocyte (3T3-L1 preadipocyte [2]; 5 μg/mL) [%] | decrease of proliferation rate of 3T3-L1 preadipocyte (3T3-L1 preadipocyte [2]; 10 μg/mL) [%]
1 | C/C=C/C1=CC2=C(CO1)C(=O)[C@]1(C)OC(=O)[C@H](C(=O)CCCCCCC)[C@H]1C2 [ankaflavin] | 41.2 | 29.9 |  |  |  |  |  |  | 
2 | C/C=C/C1=CC2=C(CO1)C(=O)[C@]1(C)OC(=O)[C@H](C(=O)CCCCC)[C@H]1C2 [monascin] | 31.2 |  | 8 |  |  |  |  |  | 
3 | CC[C@H](C)C(=O)O[C@H]1C[C@@H](C)C=C2C=C[C@H](C)[C@H](CC[C@@H]3C[C@@H](O)CC(=O)O3)[C@H]21 [Monacolin K] |  |  |  | 472.4 | 141.1 | 13.0 | 18.2 | 23.9 | 28.6
